# Patent US12233161B1, “Lipids and lipid nanoparticle formulations” (LONGUIDE BIOPHARMA CORPORATION, priority 2024, dated 2025)
# Test system: mice
# Test: In vivo delivery of FLuc-mRNA lipid nanoparticles in mice, in vivo imaging (IVIS)
# Conditions: Fluc-mRNA LNP
# Procedure: After the preparation was completed, the preparation was injected intramuscularly (mice rectus femoris muscle of the thigh), intravenously (mice tail vein), or intraperitoneal injection or subcutaneous injection (subcutaneous on the back), with approximately 75 μL per mouse, for a total of 3 mice. After a certain time of injection, in vivo imaging (PerkinElmer, IVIS Lumina III) was performed. 10-15 minutes before imaging, 200 μL of 15 mg/mL D-Luciferin working solution was injected intraperitoneally, and the imaging analysis was performed using an in vivo imager.
# [1] = route IH, organ: body, DSPE-PEG5000:DSPC:Chol:compound 1.40:11.15:38.95:48.50, N/P 30
# [2] = route IH, organ: liver, DSPE-PEG5000:DSPC:Chol:compound 1.40:11.15:38.95:48.50, N/P 30
# [3] = route IH, organ: lung, DSPE-PEG5000:DSPC:Chol:compound 1.40:11.15:38.95:48.50, N/P 30
# [4] = route IH, organ: spleen, DSPE-PEG5000:DSPC:Chol:compound 1.40:11.15:38.95:48.50, N/P 30
# [5] = route IM, organ: liver, formulation, molar ratio and N/P as in the table
# [6] = route IM, organ: lung, formulation, molar ratio and N/P as in the table
# [7] = route IM, organ: spleen, formulation, molar ratio and N/P as in the table
# [8] = route IM, organ not given, formulation, molar ratio and N/P as in the table
# [9] = route IV, organ: body, formulation, molar ratio and N/P as in the table
# [10] = route IV, organ: liver, formulation, molar ratio and N/P as in the table
# [11] = route IV, organ: lung, formulation, molar ratio and N/P as in the table
# [12] = route IV, organ: spleen, formulation, molar ratio and N/P as in the table
# [13] = route IM, 1 h (live), DSPE-PEG5000:DSPC:Chol:compound 1.40:11.15:38.95:48.50, N/P 30
# [14] = route IM, 1 h (lung), DSPE-PEG5000:DSPC:Chol:compound 1.40:11.15:38.95:48.50, N/P 30
# [15] = route IM, 1 h (spleen), DSPE-PEG5000:DSPC:Chol:compound 1.40:11.15:38.95:48.50, N/P 30
# [16] = route IM, 2 h (live), DSPE-PEG5000:DSPC:Chol:compound 1.40:11.15:38.95:48.50, N/P 30
# [17] = route IM, 2 h (lung), DSPE-PEG5000:DSPC:Chol:compound 1.40:11.15:38.95:48.50, N/P 30
# [18] = route IM, 2 h (spleen), DSPE-PEG5000:DSPC:Chol:compound 1.40:11.15:38.95:48.50, N/P 30
# [19] = route IM, 3 h (live), DSPE-PEG5000:DSPC:Chol:compound 1.40:11.15:38.95:48.50, N/P 30
# [20] = route IM, 3 h (lung), DSPE-PEG5000:DSPC:Chol:compound 1.40:11.15:38.95:48.50, N/P 30
# [21] = route IM, 3 h (spleen), DSPE-PEG5000:DSPC:Chol:compound 1.40:11.15:38.95:48.50, N/P 30
# [22] = route IM, 6 h (live), DSPE-PEG5000:DSPC:Chol:compound 1.40:11.15:38.95:48.50, N/P 30
# [23] = route IM, 6 h (lung), DSPE-PEG5000:DSPC:Chol:compound 1.40:11.15:38.95:48.50, N/P 30
# [24] = route IM, 6 h (spleen), DSPE-PEG5000:DSPC:Chol:compound 1.40:11.15:38.95:48.50, N/P 30
smiles,measurement,setting,value
CCCCCCC(CCCCCC)C(=O)NCCOC(=O)C(O)CN(CCN(C)CCN(CC(O)C(=O)OCCNC(=O)C(CCCCCC)CCCCCC)CC(O)C(=O)OCCNC(=O)C(CCCCCC)CCCCCC)CC(O)C(=O)OCCNC(=O)C(CCCCCC)CCCCCC (stereo not drawn) [Compound L0362],IVIS,[1],1.38E+08
same,% of organ targeting,[2],62.89%
same,IVIS,[2],1.80E+07
same,% of organ targeting,[3],1.15%
same,IVIS,[3],3.28E+05
same,% of organ targeting,[4],33.19%
same,IVIS,[4],9.50E+06
same,% of organ targeting,[5],44.30%
same,IVIS,[5],2.62E+07
same,% of organ targeting,[6],0.77%
same,IVIS,[6],4.55E+05
same,IVIS,"route IM, organ: muscle, formulation, molar ratio and N/P as in the table",3.43E+08
same,% of organ targeting,[7],35.43%
same,IVIS,[7],2.09E+07
CCCCCCC(CCCCCC)C(=O)NCCOC(=O)C(O)CN(CCCN(CC(O)C(=O)OCCNC(=O)C(CCCCCC)CCCCCC)CC(O)C(=O)OCCNC(=O)C(CCCCCC)CCCCCC)CCCN(CC(O)C(=O)OCCNC(=O)C(CCCCCC)CCCCCC)CC(O)C(=O)OCCNC(=O)C(CCCCCC)CCCCCC (stereo not drawn) [Compound L0363],IVIS,[8],2.08E+07
same,IVIS,[9],6.16E+09
same,IVIS,[10],6.56E+08
same,IVIS,[11],4.56E+06
same,IVIS,[12],9.96E+06
CCCCCCCCCCCCNC(=O)C(O)CN(CCCN(C)CCN(C)CCCN(CC(O)C(=O)NCCCCCCCCCCCC)CC(O)C(=O)NCCCCCCCCCCCC)CC(O)C(=O)NCCCCCCCCCCCC (stereo not drawn) [Compound L0365],IVIS,[8],1.24E+06
CCCCCCCCCCCCNC(=O)C(O)CN(CCCN(C)CCN(C)CCCN(CC(O)C(=O)NCCCCCCCCCCCC)CC(O)C(=O)NCCCCCCCCCCCC)CC(O)C(=O)NCCCCCCCCCCCC (stereo not drawn) [Compound L0366],IVIS,[8],4.56E+05
CCCCCCC(CCCCC)C(=O)OCCCCNC(=O)C(O)CN(CCCN(C)CCCCN(CCC(O)C(=O)NCCOC(=O)C(CCCCCC)CCCCCC)C(O)C(=O)NCCCCOC(=O)C(CCCCCC)CCCCCC)CC(O)C(=O)NCCCCOC(=O)C(CCCCC)CCCCCC (stereo not drawn) [Compound L0367],IVIS,[1],1.65E+07
same,IVIS,[4],8.20E+03
same,IVIS,[8],3.40E+07
same,IVIS,[9],4.05E+07
same,% of organ targeting,[10],3.91%
same,IVIS,[10],3.83E+06
same,% of organ targeting,[11],45.55%
same,IVIS,[11],4.47E+07
same,% of organ targeting,[12],37.59%
same,IVIS,[12],3.69E+07
CCCCCCC(CCCCCC)C(=O)OCCCCNC(=O)C(O)CN(CCN(C)CCN(CC(O)C(=O)NCCCCOC(=O)C(CCCCCC)CCCCCC)CC(O)C(=O)NCCCCOC(=O)C(CCCCCC)CCCCCC)CC(O)C(=O)NCCCCOC(=O)C(CCCCCC)CCCCCC (stereo not drawn) [Compound L0368],% of organ targeting,[13],39.42%
same,IVIS,[13],3.95E+05
same,% of organ targeting,[14],5.12%
same,IVIS,[14],5.13E+04
same,IVIS,"route IM, 1 h (muscle), DSPE-PEG5000:DSPC:Chol:compound 1.40:11.15:38.95:48.50, N/P 30",8.19E+07
same,% of organ targeting,[15],42.92%
same,IVIS,[15],4.30E+05
same,% of organ targeting,[16],70.91%
same,IVIS,[16],6.97E+06
same,% of organ targeting,[17],1.59%
same,IVIS,[17],1.57E+05
same,IVIS,"route IM, 2 h (muscle), DSPE-PEG5000:DSPC:Chol:compound 1.40:11.15:38.95:48.50, N/P 30",2.25E+08
same,% of organ targeting,[18],26.79%
same,IVIS,[18],2.64E+06
same,% of organ targeting,[19],51.88%
same,IVIS,[19],5.57E+06
same,% of organ targeting,[20],1.77%
same,IVIS,[20],1.89E+05
same,IVIS,"route IM, 3 h (muscle), DSPE-PEG5000:DSPC:Chol:compound 1.40:11.15:38.95:48.50, N/P 30",5.02E+08
same,% of organ targeting,[21],27.68%
same,IVIS,[21],2.97E+06
same,% of organ targeting,[22],52.87%
same,IVIS,[22],1.53E+07
same,% of organ targeting,[23],1.75%
same,IVIS,[23],5.04E+05
same,IVIS,"route IM, 6 h (muscle), DSPE-PEG5000:DSPC:Chol:compound 1.40:11.15:38.95:48.50, N/P 30",1.32E+08
same,% of organ targeting,[24],42.92%
same,IVIS,[24],1.24E+07
same,IVIS,[8],9.91E+07
same,IVIS,[9],6.34E+07
same,% of organ targeting,[10],18.05%
same,IVIS,[10],1.00E+07
same,% of organ targeting,[11],7.99%
same,IVIS,[11],4.43E+06
same,% of organ targeting,[12],73.95%
same,IVIS,[12],4.10E+07
CCCCCCC(CCCCCC)C(=O)OCCCCNC(=O)C(O)CN(CCCN(CC(O)C(=O)NCCCCOC(=O)C(CCCCCC)CCCCCC)CC(O)C(=O)NCCCCOC(=O)C(CCCCCC)CCCCCC)CCCN(CC(O)C(=O)NCCCCOC(=O)C(CCCCCC)CCCCCC)CC(O)C(=O)NCCCCOC(=O)C(CCCCCC)CCCCCC (stereo not drawn) [Compound L0369],IVIS,[8],6.07E+07
same,IVIS,[9],1.22E+10
same,% of organ targeting,[10],98.57%
same,IVIS,[10],4.47E+09
same,% of organ targeting,[11],0.75%
same,IVIS,[11],3.40E+07
same,% of organ targeting,[12],0.68%
same,IVIS,[12],3.07E+07
CCCCCCCCC(CCCCCC)C(=O)OCCCCCCNC(=O)C(O)CN(CCCN(C)CCCN(CC(O)C(=O)NCCCCCCOC(=O)C(CCCCCC)CCCCCCCC)CC(O)C(=O)NCCCCCCOC(=O)C(CCCCCC)CCCCCCCC)CC(O)C(=O)NCCCCCCOC(=O)C(CCCCCC)CCCCCCCC (stereo not drawn) [Compound L0370],IVIS,[8],1.68E+07
same,IVIS,[9],1.43E+07
same,% of organ targeting,[10],4.65%
same,IVIS,[10],8.65E+05
same,% of organ targeting,[11],17.97%
same,IVIS,[11],3.34E+06
same,% of organ targeting,[12],77.39%
same,IVIS,[12],1.44E+07
CCCCCCCCC(CCCCCC)C(=O)OCCCCCCNC(=O)C(O)CN(CCN(C)CCN(CC(O)C(=O)NCCCCCCOC(=O)C(CCCCCC)CCCCCCCC)CC(O)C(=O)NCCCCCCOC(=O)C(CCCCCC)CCCCCCCC)CC(O)C(=O)NCCCCCCOC(=O)C(CCCCCC)CCCCCCCC (stereo not drawn) [Compound L0371],IVIS,[8],3.02E+07
same,IVIS,[9],1.98E+07
same,% of organ targeting,[10],8.16%
same,IVIS,[10],2.58E+06
same,% of organ targeting,[11],8.29%
same,IVIS,[11],2.62E+06
same,% of organ targeting,[12],83.54%
same,IVIS,[12],2.64E+07
CCCCCCCCC(CCCCCC)C(=O)OCCCCCCNC(=O)C(O)CN(CCCN(CC(O)C(=O)NCCCCCCOC(=O)C(CCCCCC)CCCCCCCC)CC(O)C(=O)NCCCCCCOC(=O)C(CCCCCC)CCCCCCCC)CCCN(CC(O)C(=O)NCCCCCCOC(=O)C(CCCCCC)CCCCCCCC)CC(O)C(=O)NCCCCCCOC(=O)C(CCCCCC)CCCCCCCC (stereo not drawn) [Compound L0372],IVIS,[8],7.60E+06
same,IVIS,"route IV, organ not given, formulation, molar ratio and N/P as in the table",4.83E+08
CCCCCCCCC(CCCCCC)C(=O)NCCOC(=O)C(O)CN(CCCN(C)CCCN(CC(O)C(=O)OCCNC(=O)C(CCCCCC)CCCCCCCC)CC(O)C(=O)OCCNC(=O)C(CCCCCC)CCCCCCCC)CC(O)C(=O)OCCNC(=O)C(CCCCCC)CCCCCCCC (stereo not drawn) [Compound L0373],IVIS,[8],8.38E+06
same,IVIS,[9],7.79E+07
same,% of organ targeting,[10],11.58%
same,IVIS,[10],9.41E+06
same,% of organ targeting,[11],13.53%
same,IVIS,[11],1.10E+07
same,% of organ targeting,[12],74.89%
same,IVIS,[12],6.08E+07
CCCCCCCCC(CCCCCC)C(=O)NCCOC(=O)C(O)CN(CCN(C)CCN(CC(O)C(=O)OCCNC(=O)C(CCCCCC)CCCCCCCC)CC(O)C(=O)OCCNC(=O)C(CCCCCC)CCCCCCCC)CC(O)C(=O)OCCNC(=O)C(CCCCCC)CCCCCCCC (stereo not drawn) [Compound L0374],IVIS,[8],6.46E+07
